Eleven compounds from PubChem BioAssay (NCI) can be followed below.

The structures appear in SMILES notation.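 In this assay, cells in 96-well plates receive the compound at five concentrations for 48 hours. Endpoints are linearly interpolated between the surrounding concentrations. TGI denotes the concentration required for complete inhibition of growth.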

Some test systems named below: KM12 colon; SNB-19 CNS; HL-60(TB) leukemia; NCI-H522 lung; SK-OV-3 ovarian; SK-MEL-28 melanoma; HCT-15 colon; IGROV1 ovarian; SF-539 CNS; SNB-75 CNS; ACHN renal; MDA-N.
What all share (experiment): NCI tumour cell line growth inhibition, 48 h

`Cc1cc(N(CCC#N)CCC#N)ccc1/C(N=Nc1cccc([N+](=O)[O-])c1)=N/NC(=O)c1cc(Cl)ccc1O`: the TGI in the assay with KM12 colon was over 100 µM; in the assay on SNB-19 CNS, over 100 µM; with HL-60(TB) leukemia it was 37.8 µM; in the assay on NCI-H522 lung, 90.2 µM; with SK-OV-3 ovarian it was over 100 µM; in the assay with SK-MEL-28 melanoma it was over 100 µM. In addition, the TGI in the assay on HCT-15 colon was 80.5 µM; with IGROV1 ovarian it was 32.8 µM; in the assay with SF-539 CNS it was over 100 µM; with SNB-75 CNS it was 82.6 µM; with ACHN renal, over 100 µM; with MDA-N, over 100 µM.

Consider `CC(=O)OCC1OC(n2c(N)c(C#N)c(-c3ccccc3)c(C#N)c2=S)C(OC(C)=O)C(OC(C)=O)C1OC(C)=O` (configuration not stated), for which the TGI in the assay with KM12 colon was over 100 µM; in the assay with SNB-19 CNS, over 75.4 µM; in the assay with HL-60(TB) leukemia it was over 100 µM; in the assay on NCI-H522 lung, over 100 µM; in the assay with SK-OV-3 ovarian it was over 100 µM; with SK-MEL-28 melanoma, over 100 µM. The TGI in the assay with HCT-15 colon was over 100 µM; with IGROV1 ovarian, over 100 µM; in the assay on SF-539 CNS it was over 100 µM; with SNB-75 CNS it was 30 µM; in the assay on ACHN renal it was over 100 µM; in the assay on MDA-N it was over 100 µM.

Consider `COC(=O)C(CCC1C=CCC1)N=Cc1ccccc1` (configuration not stated), for which the TGI in the assay on KM12 colon, in the assay on SNB-19 CNS, with HL-60(TB) leukemia, with NCI-H522 lung, in the assay on SK-OV-3 ovarian and in the assay on SK-MEL-28 melanoma was over 100 µM each time. Also, the TGI with HCT-15 colon, in the assay with IGROV1 ovarian, in the assay on SF-539 CNS, with SNB-75 CNS, in the assay on ACHN renal and in the assay on MDA-N was over 100 µM in each case.

With `Cc1ccc(/C=C/C(=O)c2c([O-])on[n+]2-c2ccccc2)cc1`, the TGI in the assay on KM12 colon is 7.69 µM; with SNB-19 CNS it was over 33.5 µM; in the assay on HL-60(TB) leukemia, 6.55 µM; with NCI-H522 lung, 8.06 µM; in the assay on SK-OV-3 ovarian, over 100 µM; in the assay with SK-MEL-28 melanoma, 5.75 µM. Further, the TGI was 4.68 µM with HCT-15 colon; 8.67 µM with IGROV1 ovarian; 12.7 µM in the assay with SF-539 CNS; 4.87 µM in the assay on SNB-75 CNS; 3.55 µM with ACHN renal; over 26.3 µM in the assay on MDA-N.

Consider `CC(C)CCC1(O)O[C@H]2C[C@H]3[C@@H]4CCC5CC(=O)C=C[C@]5(C)[C@H]4CC[C@]3(C)[C@H]2[C@@H]1C` (some centres not stated), for which the TGI in the assay on KM12 colon was determined as 26.5 µM; in the assay on SNB-19 CNS it was 31.3 µM; in the assay on HL-60(TB) leukemia, 17.7 µM; with NCI-H522 lung, 3.8 µM; with SK-OV-3 ovarian, 32.9 µM; with SK-MEL-28 melanoma, 25 µM. For the same compound, the TGI in the assay on HCT-15 colon was found to be 23.4 µM; in the assay on IGROV1 ovarian, 30.3 µM; with SF-539 CNS, 31.7 µM; in the assay with SNB-75 CNS it was 28 µM; in the assay on ACHN renal, 26.6 µM; in the assay with MDA-N, 27 µM.

Regarding `Nc1nc(Cl)cc(NCC2(CO)CCC(Cc3ccccc3)C2)n1` (configuration not stated), the TGI was 49.8 µM in the assay on KM12 colon; over 100 µM with SNB-19 CNS; 26.1 µM in the assay with HL-60(TB) leukemia; 49 µM in the assay with NCI-H522 lung; over 90.6 µM with SK-OV-3 ovarian; over 100 µM in the assay with SK-MEL-28 melanoma. Besides, the TGI in the assay on HCT-15 colon was over 100 µM; in the assay on IGROV1 ovarian, over 100 µM; in the assay with SF-539 CNS, over 100 µM; with SNB-75 CNS it was over 89.9 µM; with ACHN renal, over 100 µM; in the assay with MDA-N, over 91.5 µM.

Turning to `CN1CCC2(CC1)C(=O)N(N1CCCCCC1)C(=O)N2c1ccccc1`, the TGI with KM12 colon, in the assay on SNB-19 CNS, with HL-60(TB) leukemia, in the assay with NCI-H522 lung, with SK-OV-3 ovarian and with SK-MEL-28 melanoma was over 100 µM in each case. For the same compound, the TGI with HCT-15 colon, in the assay on IGROV1 ovarian, in the assay with SF-539 CNS, in the assay with SNB-75 CNS, with ACHN renal and in the assay on MDA-N was over 100 µM each time.

For `O=C(CSc1nc(=O)[nH]c2nc[nH]c12)Nc1ccccc1`, the TGI with KM12 colon, in the assay with SNB-19 CNS, in the assay with HL-60(TB) leukemia, in the assay on NCI-H522 lung, in the assay with SK-OV-3 ovarian and with SK-MEL-28 melanoma was over 100 µM in each case. Moreover, the TGI with HCT-15 colon is over 100 µM; with IGROV1 ovarian it was over 100 µM; in the assay with SF-539 CNS, 88.1 µM; with SNB-75 CNS, over 100 µM; in the assay on ACHN renal, over 100 µM; in the assay with MDA-N, over 100 µM.

`O=C1NC2(CCCCC2)N=C2C(Cl)CCCC12Cl` (configuration not stated): the TGI in the assay on KM12 colon, with SNB-19 CNS, with HL-60(TB) leukemia, in the assay with NCI-H522 lung, in the assay on SK-OV-3 ovarian and in the assay on SK-MEL-28 melanoma was over 100 µM throughout. In addition, the TGI in the assay with HCT-15 colon, with IGROV1 ovarian, in the assay on SF-539 CNS, with SNB-75 CNS, with ACHN renal and in the assay on MDA-N was over 100 µM throughout.

On to `O=C1C2C=CC1C1C(=O)OC(=O)C21` (configuration not stated), for which the TGI in the assay on KM12 colon, in the assay with SNB-19 CNS, with HL-60(TB) leukemia, in the assay on NCI-H522 lung, in the assay on SK-OV-3 ovarian and with SK-MEL-28 melanoma was over 100 µM throughout. Further, the TGI with HCT-15 colon, in the assay on IGROV1 ovarian, in the assay on SF-539 CNS, in the assay with SNB-75 CNS, in the assay on ACHN renal and in the assay on MDA-N was over 100 µM each time.

For `Cc1csc2nc(-c3ccc([N+](=O)[O-])cc3)c(/C=N/N=C(N)N)n12`, the TGI stood at 3.49 µM in the assay with KM12 colon; 4.18 µM in the assay with SNB-19 CNS; 4.49 µM with HL-60(TB) leukemia; 3.08 µM in the assay with NCI-H522 lung; 3.11 µM in the assay with SK-OV-3 ovarian; 3.23 µM in the assay on SK-MEL-28 melanoma. The TGI in the assay with HCT-15 colon is 1.68 µM; in the assay with IGROV1 ovarian, 2.75 µM; with SF-539 CNS it was 3.08 µM; with SNB-75 CNS it was 2.97 µM; with ACHN renal, 2.71 µM; in the assay on MDA-N, 3.51 µM.
